Measurements as given in patent US10703733B2, “MCL-1 inhibitors” (Gilead Sciences, Inc., priority 2018, dated 2020).
Where two headings read alike, the source gives them in different places.

What was measured:
[1] = target: MCL-1/Bim interaction (recombinant human MCL-1 protein, residues 171-327; biotinylated human Bim peptide, residues 51-76) (Homo sapiens (Human), UniProt Q07820); assay: MCL-1/Bim Binding AlphaLISA Assay; conditions: 0.0625 nM 6xHis-Mcl-1 (171-327), 0.0625 nM biotinylated-Bim peptide
How it was run: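 AlphaLISA with 0.0625 nM His-tagged MCL-1 (171-327) and 0.0625 nM biotinylated Bim (51-76) in 20 mM Hepes pH 7.5, 150 mM NaCl, 0.002% Brij 35, 1 mM DTT, 0.01% BSA. Compound preincubated 1 h with MCL-1, then Bim 2 h, acceptor beads 1 h, donor beads 1 h; percent inhibition against DMSO and no-protein/no-peptide controls.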

[2] = test system: SKBR3 cells; assay: SKBR3 Cell Viability Assay (CellTiter Glo); type: cell-based; conditions: CellTiter Glo luminescence, read-out: MCL-1 CV SKBR3 EC50
How it was run: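 SKBR3 cells (6,000/well) in McCoy 5A + 10% FBS exposed to serially diluted compound for 72 h at 37° C., 5% CO2. Viability by CellTiter Glo luminescence; % inhibition normalized to DMSO (negative) and 10 μM puromycin (positive).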

Chain of MCL-1/Bim interaction (recombinant human MCL-1 protein, residues 171-327; biotinylated human Bim peptide, residues 51-76) (Q07820 171-327): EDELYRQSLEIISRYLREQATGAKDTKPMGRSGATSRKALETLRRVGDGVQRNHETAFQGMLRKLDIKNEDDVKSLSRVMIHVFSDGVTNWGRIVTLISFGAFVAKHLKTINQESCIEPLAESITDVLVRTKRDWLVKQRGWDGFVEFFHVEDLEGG

| SMILES | IC50 [1] | EC50 ([2]; Homo sapiens, SK-BR-3, 72 h) | EC50 ([2]; 72 hours) |
| --- | --- | --- | --- |
| COc1nnccc1C(=O)N[S@@]1(=O)=NC(=O)c2ccc3c(c2)N(C[C@@H]2CC[C@H]2[C@@H](OC)/C=C/C[C@H](C)C1)C[C@@]1(CCCc2cc(Cl)ccc21)CO3 [Example 458] | 0.079 nM | 376 nM |  |
| CCCn1cc(C(=O)N[S@@]2(=O)=NC(=O)c3ccc4c(c3)N(C[C@@H]3CC[C@H]3[C@@H](OC)/C=C/C[C@H](C)C2)C[C@@]2(CCCc3cc(Cl)ccc32)CO4)cn1 [Example 420] | 0.237 nM | 124 nM |  |
| COC(=O)c1cc(C(=O)N[S@@]2(=O)=NC(=O)c3ccc4c(c3)N(C[C@@H]3CC[C@H]3[C@@H](OC)/C=C/C[C@H](C)C2)C[C@@]2(CCCc3cc(Cl)ccc32)CO4)cn1C [Example 358] | 0.114 nM | 95.1 nM |  |
| COC[C@H]1C[C@@H](NC(=O)N[S@@]2(=O)=NC(=O)c3ccc4c(c3)N(C[C@@H]3CC[C@H]3[C@@H](OC)/C=C/C[C@H](C)C2)C[C@@]2(CCCc3cc(Cl)ccc32)CO4)C1 [Example 210] | 0.071 nM | 43.4 nM |  |
| COCC12CC(NC(=O)N[S@@]3(=O)=NC(=O)c4ccc5c(c4)N(C[C@@H]4CC[C@H]4[C@@H](OC)/C=C/C[C@H](C)C3)C[C@@]3(CCCc4cc(Cl)ccc43)CO5)(C1)C2 [Example 211] | 0.082 nM | 54.2 nM |  |
| CO[C@H]1/C=C/C[C@H](C)C[S@@](=O)(NC(=O)N[C@@H]2CCOC2)=NC(=O)c2ccc3c(c2)N(C[C@@H]2CC[C@H]21)C[C@@]1(CCCc2cc(Cl)ccc21)CO3 [Example 155] | 0.06 nM | 43 nM |  |
| CO[C@H]1/C=C/C[C@H](C)C[S@@](=O)(NC(=O)N2CCC(C(F)F)CC2)=NC(=O)c2ccc3c(c2)N(C[C@@H]2CC[C@H]21)C[C@@]1(CCCc2cc(Cl)ccc21)CO3 [Example 258] | 0.117 nM | 195 nM |  |
| CO[C@H]1/C=C/CCC[S@@](=O)(NC(=O)CCc2ccnn2CC(F)(F)F)=NC(=O)c2ccc3c(c2)N(C[C@@H]2CC[C@H]21)C[C@@]1(CCCc2cc(Cl)ccc21)CO3 [Example 92] | 0.1 nM | 245 nM |  |
| CO[C@H]1/C=C/C[C@H](C)C[S@@](=O)(NC(=O)N[C@@H]2C[C@]2(C)OC)=NC(=O)c2ccc3c(c2)N(C[C@@H]2CC[C@H]21)C[C@@]1(CCCc2cc(Cl)ccc21)CO3 (single isomer, unassigned) [Example 312] | 0.039 nM | 43.5 nM |  |
| CO[C@H]1/C=C/C[C@H](C)C[S@@](=O)(NC(=O)c2cc3n(n2)CCO3)=NC(=O)c2ccc3c(c2)N(C[C@@H]2CC[C@H]21)C[C@@]1(CCCc2cc(Cl)ccc21)CO3 [Example 219] | 0.099 nM | 146 nM |  |
| COc1nn(C)cc1C(=O)N[S@@]1(=O)=NC(=O)c2ccc3c(c2)N(C[C@@H]2CC[C@H]2[C@@H](OC)/C=C/[C@H](OC)CC1)C[C@@]1(CCCc2cc(Cl)ccc21)CO3 [Example 392] | 0.07 nM | 142 nM |  |
| COc1nn(C)cc1C(=O)N[S@@]1(=O)=NC(=O)c2ccc3c(c2)N(C[C@@H]2CC[C@H]2[C@@H](OC)/C=C/[C@H](OC(C)=O)[C@H](C)C1)C[C@@]1(CCCc2cc(Cl)ccc21)CO3 [Example 393] | 0.062 nM | 33.4 nM |  |
| CO[C@H]1/C=C/CCCS(=O)(NC(=O)CCn2ccnn2)=NC(=O)c2ccc3c(c2)N(C[C@@H]2CC[C@H]21)C[C@@]1(CCCc2cc(Cl)ccc21)CO3 (single isomer, unassigned) [Example 54] | 0.2 nM | 3810 nM |  |
| CO[C@H]1/C=C/C[C@H](C)C[S@@](=O)(NC(=O)c2cc(CN3CCN(C(C)C)[C@H](C)C3)n(C)c2)=NC(=O)c2ccc3c(c2)N(C[C@@H]2CC[C@H]21)C[C@@]1(CCCc2cc(Cl)ccc21)CO3 [Example 284] | 0.061 nM | 54.7 nM |  |
| CO[C@H]1/C=C/CCC[S@@](=O)(NC(=O)CCC2CCCC2)=NC(=O)c2ccc3c(c2)N(C[C@@H]2CC[C@H]21)C[C@@]1(CCCc2cc(Cl)ccc21)CO3 [Example 82] | 1.1 nM | 2320 nM |  |
| CO[C@H]1/C=C/C[C@H](C)C[S@@](=O)(NC(=O)N[C@H]2C[C@H]2OC)=NC(=O)c2ccc3c(c2)N(C[C@@H]2CC[C@H]21)C[C@@]1(CCCc2cc(Cl)ccc21)CO3 [Example 317] | 0.034 nM | 48.5 nM |  |
| CO[C@H]1/C=C/C[C@H](C)C[S@@](=O)(NC(=O)N[C@@H]2C[C@H]2CC(F)F)=NC(=O)c2ccc3c(c2)N(C[C@@H]2CC[C@H]21)C[C@@]1(CCCc2cc(Cl)ccc21)CO3 (single isomer, unassigned) [Example 281] | 0.154 nM |  | 184 nM |
| CO[C@H]1/C=C/C[C@H](C)C[S@@](=O)(NC(=O)N[C@H]2C[C@@H](OC)C2)=NC(=O)c2ccc3c(c2)N(C[C@@H]2CC[C@H]21)C[C@@]1(CCCc2cc(Cl)ccc21)CO3 [Example 149] | 0.109 nM | 95.3 nM |  |
| CCNC(=O)N[S@@]1(=O)=NC(=O)c2ccc3c(c2)N(C[C@@H]2CC[C@H]2[C@@H](OC)/C=C/C[C@H](C)C1)C[C@@]1(CCCc2cc(Cl)ccc21)CO3 [Example 421] | 0.081 nM | 152 nM |  |
| CO[C@H]1/C=C/CCC[S@@](=O)(NC(=O)CCc2nnc(C)s2)=NC(=O)c2ccc3c(c2)N(C[C@@H]2CC[C@H]21)C[C@@]1(CCCc2cc(Cl)ccc21)CO3 [Example 102] | 0.3 nM | 891 nM |  |

More lines, now with the values ahead:

| IC50 [1] | EC50 ([2]; Homo sapiens, SK-BR-3, 72 h) | EC50 ([2]; 72 hours) | SMILES |
| --- | --- | --- | --- |
| 0.044 nM | 121 nM |  | CO[C@H]1/C=C/C[C@H](C)C[S@@](=O)(NC(=O)N2CC(C(C)(C)O)C2)=NC(=O)c2ccc3c(c2)N(C[C@@H]2CC[C@H]21)C[C@@]1(CCCc2cc(Cl)ccc21)CO3 [Example 237] |
| 0.113 nM | 196 nM |  | CCn1cc(C(=O)N[S@@]2(=O)=NC(=O)c3ccc4c(c3)N(C[C@@H]3CC[C@H]3[C@@H](OC)/C=C/CCC2)C[C@@]2(CCCc3cc(Cl)ccc32)CO4)cn1 [Example 405] |
| 0.055 nM | 44 nM |  | CO[C@H]1/C=C/C[C@H](C)C[S@@](=O)(NC(=O)NC23CC(OC)(C2)C3)=NC(=O)c2ccc3c(c2)N(C[C@@H]2CC[C@H]21)C[C@@]1(CCCc2cc(Cl)ccc21)CO3 [Example 361] |
| 0.098 nM | 146 nM |  | CNC(=O)N[S@@]1(=O)=NC(=O)c2ccc3c(c2)N(C[C@@H]2CC[C@H]2[C@@H](OC)/C=C/C[C@H](C)C1)C[C@@]1(CCCc2cc(Cl)ccc21)CO3 [Example 454] |
| 0.053 nM | 64.1 nM |  | CCO[C@H]1/C=C/[C@H](OC)[C@@H]2CC[C@H]2CN2C[C@@]3(CCCc4cc(Cl)ccc43)COc3ccc(cc32)C(=O)N=[S@](=O)(NC(=O)c2cn(C)nc2OC)C[C@H]1C [Example 296] |
| 0.088 nM | 140 nM |  | COC(=O)[C@]1(C)C[C@H](NC(=O)N[S@@]2(=O)=NC(=O)c3ccc4c(c3)N(C[C@@H]3CC[C@H]3[C@@H](OC)/C=C/C[C@H](C)C2)C[C@@]2(CCCc3cc(Cl)ccc32)CO4)C1 [Example 305] |
| 0.019 nM | 17.3 nM |  | COc1nn(C)cc1C(=O)N[S@@]1(=O)=NC(=O)c2ccc3c(c2)N(C[C@@H]2CC[C@H]2[C@@H](O)/C=C\C[C@H](C)[C@H]1C)C[C@@]1(CCCc2cc(Cl)ccc21)CO3 [Example 343] |
| 0.092 nM | 403 nM |  | CO[C@H]1/C=C/CCC[S@@](=O)(NC(=O)COC2CCN(C(=O)N(C)C)CC2)=NC(=O)c2ccc3c(c2)N(C[C@@H]2CC[C@H]21)C[C@@]1(CCCc2cc(Cl)ccc21)CO3 [Example 417] |
| 0.163 nM | 71.5 nM |  | CO[C@H]1/C=C/C[C@H](C)C[S@@](=O)(NC(=O)[C@@H](O)Cc2ccccc2)=NC(=O)c2ccc3c(c2)N(C[C@@H]2CC[C@H]21)C[C@@]1(CCCc2cc(Cl)ccc21)CO3 [Example 121] |
| 0.076 nM | 57 nM |  | CO[C@H]1/C=C/C[C@H](C)C[S@@](=O)(NC(=O)c2cn(C)nc2N(C)C)=NC(=O)c2ccc3c(c2)N(C[C@@H]2CC[C@H]21)C[C@@]1(CCCc2cc(Cl)ccc21)CO3 [Example 213] |
| 0.099 nM | 123 nM |  | CO[C@H]1/C=C/C[C@H](C)C[S@@](=O)(NC(=O)c2cn(C)nc2Cl)=NC(=O)c2ccc3c(c2)N(C[C@@H]2CC[C@H]21)C[C@@]1(CCCc2cc(Cl)ccc21)CO3 [Example 126] |
| 0.074 nM | 88.7 nM |  | CO[C@H]1/C=C/C[C@H](C)C[S@@](=O)(NC(=O)C2CC3(CCOC3)C2)=NC(=O)c2ccc3c(c2)N(C[C@@H]2CC[C@H]21)C[C@@]1(CCCc2cc(Cl)ccc21)CO3 (some centres unmarked) [Example 125] |
| 0.2 nM | 2090 nM |  | CO[C@H]1/C=C/CCC[S@@](=O)(NC(=O)CCc2csc(C)n2)=NC(=O)c2ccc3c(c2)N(C[C@@H]2CC[C@H]21)C[C@@]1(CCCc2cc(Cl)ccc21)CO3 [Example 99] |
| 0.044 nM | 80.1 nM |  | CO[C@H]1/C=C/C[C@H](C)C[S@@](=O)(NC(=O)N[C@@H]2CC[C@@H](O)C2)=NC(=O)c2ccc3c(c2)N(C[C@@H]2CC[C@H]21)C[C@@]1(CCCc2cc(Cl)ccc21)CO3 [Example 222] |
| 0.187 nM | 162 nM |  | CO[C@H]1/C=C/C[C@H](C)C[S@@](=O)(NC(=O)Nc2ccnc(C)c2)=NC(=O)c2ccc3c(c2)N(C[C@@H]2CC[C@H]21)C[C@@]1(CCCc2cc(Cl)ccc21)CO3 [Example 443] |
| 0.091 nM | 302 nM |  | COC1CCn2cc(C(=O)N[S@@]3(=O)=NC(=O)c4ccc5c(c4)N(C[C@@H]4CC[C@H]4[C@@H](OC)/C=C/C[C@H](C)C3)C[C@@]3(CCCc4cc(Cl)ccc43)CO5)nc2C1 (some centres unmarked) [Example 302] |
| 0.2 nM | 596 nM |  | CO[C@H]1/C=C/CCC[S@@](=O)(NC(=O)CCc2cnoc2)=NC(=O)c2ccc3c(c2)N(C[C@@H]2CC[C@H]21)C[C@@]1(CCCc2cc(Cl)ccc21)CO3 [Example 57] |
